Test results taken from ChEMBL document CHEMBL1155624, “Steroidal glycosides from the aerial parts of Polianthes tuberosa” (J Nat Prod, 2000).
Values after ≈ are worked out from the molar mass of the structure shown.

tested on: HL-60; assay: Cytotoxicity against human HL60 cells by MTT reduction assay; format: functional, cell-based

SMILES	IC50 [µg/mL]
CC(C)CC[C@H](O)[C@@H](C)[C@H]1[C@@H](O[C@@H]2OC[C@](O)(CO)[C@H]2O)C[C@H]2[C@@H]3CC=C4C[C@@H](O)C[C@@H](O[C@@H]5O[C@H](CO)[C@@H](O)[C@H](O)[C@H]5O)[C@]4(C)[C@H]3CC[C@]12C	> 10
CC1CC[C@@]2(OC1)O[C@H]1C[C@H]3[C@@H]4CC[C@H]5C[C@@H](O[C@@H]6O[C@H](CO)[C@H](O[C@@H]7O[C@H](CO)[C@@H](O)[C@H](O[C@@H]8OC[C@@H](O)[C@H](O)[C@H]8O)[C@H]7O[C@@H]7O[C@H](CO)[C@@H](O)[C@H](O[C@@H]8OC[C@@H](O)[C@H](O)[C@H]8O)[C@H]7O)[C@H](O)[C@H]6O)CC[C@]5(C)C4=CC(=O)[C@]3(C)[C@H]1[C@@H]2C (some centres undefined)	6.1 (≈ 5.17 µM)
CC1CC[C@@]2(OC1)O[C@H]1C[C@H]3[C@@H]4CC[C@H]5C[C@@H](O[C@@H]6O[C@H](CO)[C@H](O[C@@H]7O[C@H](CO)[C@@H](O)[C@H](O[C@@H]8OC[C@@H](O)[C@H](O)[C@H]8O)[C@H]7O[C@@H]7O[C@H](CO)[C@@H](O)[C@H](O[C@@H]8OC[C@@H](O)[C@H](O)[C@H]8O)[C@H]7O)[C@H](O)[C@H]6O)CC[C@]5(C)[C@H]4CC(=O)[C@]3(C)[C@H]1[C@@H]2C (some centres undefined)	3.2 (≈ 2.71 µM)
CC1CC[C@@]2(OC1)O[C@H]1C[C@H]3[C@@H]4C[C@H](O)[C@H]5C[C@@H](O[C@@H]6O[C@H](CO)[C@H](O[C@@H]7O[C@H](CO)[C@@H](O)[C@H](O[C@@H]8OC[C@@H](O)[C@H](O)[C@H]8O)[C@H]7O[C@@H]7O[C@H](CO)[C@@H](O)[C@H](O[C@@H]8OC[C@@H](O)[C@H](O)[C@H]8O)[C@H]7O)[C@H](O)[C@H]6O)CC[C@]5(C)[C@H]4CC[C@]3(C)[C@H]1[C@@H]2C (some centres undefined)	2.6 (≈ 2.2 µM)
